According to ChEMBL document CHEMBL3045326, “Avocadofurans and their tetrahydrofuran analogues: comparison of growth inhibitory and insecticidal activity” (2000):
Activity calls are given as the source filed them. The rule behind the calls is not given here.

What was measured:
Spodoptera exigua [1] = experiment: Insecticidal activity against Spodoptera exigua larvae assessed as inhibition of larval growth at 5 umol/g of diet administered through compound containing diet after 7 days; type: functional
Spodoptera exigua [2] = experiment: Insecticidal activity against young Spodoptera exigua larvae assessed per ug of diet; type: functional
Spodoptera exigua [3] = experiment: Insecticidal activity against Spodoptera exigua larvae assessed as induction of larval mortality at 5 umol/g of diet administered through compound containing diet after 7 days; type: functional, organism-based
Spodoptera exigua [4] = experiment: Insecticidal activity against older Spodoptera exigua larvae assessed per ug of diet; type: functional

| SMILES | growth inhibition (GI) (Spodoptera exigua [1]) | LC50 (Spodoptera exigua [2]) [nM] | Activity (Spodoptera exigua [3]) | LC50 (Spodoptera exigua [4]) [nM] |
| --- | --- | --- | --- | --- |
| CCCCCCCCCCCCCCC1CCCO1 (stereo not drawn) | inactive |  |  |  |
| CCCCCCCCCCCCCCCCCCC1CCCO1 (stereo not drawn) | Active |  |  |  |
| CCCCCCCCCCCCCCCCCc1ccco1 [2-(HEPTADECYL)FURAN] | 93% | ≥ 2000 | Active | > 3000 |
| CCCCCCCCCCCCCCCCC1CCCO1 (stereo not drawn) | inactive |  |  |  |
| CCCCCCCCCCCCCCCC1CCCO1 (stereo not drawn) [2-PENTADECYLTETRAHYDROFURAN] | 45% |  |  |  |
| CCCCCCCCCCCCCCCc1ccco1 | 98% | ≥ 2000 | Active | > 3000 |
| CCCCCCCCCCCCCCCCCC1CCCO1 (stereo not drawn) [2-(HEPTADECYL)TETRAHYDROFURAN] | 59% |  |  |  |
